For 19 compounds, T/C results are on record in PubChem BioAssay AID328 (DTP/NCI, 2004).

The assay deals with BDF1 mice, P388 leukemia ip, median survival T/C. The assay is described as follows: NCI In Vivo Anticancer Drug Screen. Data for tumor model P388 Leukemia (intraperitoneal) in B6D2F1 (BDF1) mice. The conditions noted are these: endpoint: median survival time, higher = longer survival. An outline of the steps: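 Reported as T/C, where T is the survival measurement in dosed animals and C the same measurement in vehicle controls.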

Where [1] appears, read: dose: 12.5 mg/kg/injection, schedule: Q01DX009 (ip), vehicle: Klucel (hydroxypropylcellulose) (HPC).
Where [2] appears, read: dose: 25.0 mg/kg/injection, schedule: Q01DX009 (ip), vehicle: Klucel (hydroxypropylcellulose) (HPC).
Setting [3] is: dose: 50.0 mg/kg/injection, schedule: Q01DX009 (ip), vehicle: saline with Tween-80.
The mark [4] stands for this setting: dose: 100.0 mg/kg/injection, schedule: Q01DX009 (ip), vehicle: saline with Tween-80.
[5] abbreviates: dose: 200.0 mg/kg/injection, schedule: Q01DX009 (ip), vehicle: saline with Tween-80.
[6] abbreviates: dose: 400.0 mg/kg/injection, schedule: Q01DX009 (ip), vehicle: saline with Tween-80.
[7] abbreviates: dose: 50.0 mg/kg/injection, schedule: Q01DX009 (ip), vehicle: Klucel (hydroxypropylcellulose) (HPC).
The mark [8] stands for this setting: dose: 100.0 mg/kg/injection, schedule: Q01DX009 (ip), vehicle: Klucel (hydroxypropylcellulose) (HPC).
[9] abbreviates: dose: 100.0 mg/kg/injection, schedule: Q04DX003 (ip), vehicle: Klucel (hydroxypropylcellulose) (HPC).
Where [10] appears, read: dose: 200.0 mg/kg/injection, schedule: Q01DX009 (ip), vehicle: Klucel (hydroxypropylcellulose) (HPC).

Where “and” joins values, the source holds several entries; their conditions need not be identical. Equal values may be shown once. Inconclusive results and toxic doses are left out.

In the case of `CCCCCCCCCCCC[S+](C)C`, the T/C is, setting by setting: (dose: 10.0 mg/kg/injection, schedule: Q01DX010 (ip), vehicle: saline) 116 % of control; (dose: 10.0 mg/kg/injection, schedule: Q04DX003 (ip), vehicle: saline) 120 % of control; (dose: 20.0 mg/kg/injection, schedule: Q01DX010 (ip), vehicle: saline) 112 % of control; (dose: 20.0 mg/kg/injection, schedule: Q04DX003 (ip), vehicle: saline) 120 % of control.

As for `CC(N)(/C=C/c1ccccc1)C(=O)O` (centres undefined), the T/C runs as follows: (dose: 50.0 mg/kg/injection, schedule: Q01DX005 (ip), vehicle: saline with Tween-80) 101 % of control; (dose: 100.0 mg/kg/injection, schedule: Q01DX005 (ip), vehicle: saline with Tween-80) 97 % of control; (dose: 200.0 mg/kg/injection, schedule: Q01DX005 (ip), vehicle: saline with Tween-80) 113 % of control.

For the compound `C/C=C/C[n+]1cccc2ccccc21`, the T/C was 86 % of control (dose: 6.25 mg/kg/injection, schedule: Q01DX009 (ip), vehicle: Klucel (hydroxypropylcellulose) (HPC)); 104 % of control (dose: 6.25 mg/kg/injection, schedule: Q04DX003 (ip), vehicle: saline); 90 % of control under setting [1]; 104 % of control (dose: 12.5 mg/kg/injection, schedule: Q04DX003 (ip), vehicle: saline); 86 % of control under setting [2]; 109 % of control (dose: 25.0 mg/kg/injection, schedule: Q04DX003 (ip), vehicle: saline).

As to `CC1(C)CCC(=O)O1`, the T/C is 104 % of control (dose: 25.0 mg/kg/injection, schedule: Q01DX009 (ip), vehicle: water); 104 % of control (dose: 50.0 mg/kg/injection, schedule: Q01DX009 (ip), vehicle: water); 91 % of control (dose: 100.0 mg/kg/injection, schedule: Q01DX009 (ip), vehicle: water); 103 % of control (dose: 200.0 mg/kg/injection, schedule: Q01DX009 (ip), vehicle: water); 91 % of control (dose: 400.0 mg/kg/injection, schedule: Q01DX009 (ip), vehicle: water).

As for `CS(=O)CC(O)(c1ccccc1)c1cccs1` (centres undefined), the T/C was 100 % of control under setting [3], 93 % of control under setting [4] and 100 % of control under setting [5].

In the case of `Cc1cc(NC(=O)Nc2ccc(C3=NCCN3)cc2)ccc1NC(=O)Nc1ccc(C2=NCCN2)cc1`, the T/C under setting [4] was 122 % of control and the T/C under setting [6] was 159 % of control.

For `CC(C)C1C(C)N1C(C)C` (centres undefined), the T/C was 100 % of control under setting [2]; 100 % of control (dose: 25.0 mg/kg/injection, schedule: Q04DX003 (ip), vehicle: Klucel (hydroxypropylcellulose) (HPC)); 100 % of control under setting [7]; 100 % of control (dose: 50.0 mg/kg/injection, schedule: Q04DX003 (ip), vehicle: Klucel (hydroxypropylcellulose) (HPC)); 95 % of control under setting [8]; 104 % of control under setting [9].

On to `Cn1cnc([N+](=O)[O-])c1Sc1ncnc2c1ncn2C1OC(CO)C(O)C1O` (centres undefined), for which the T/C under setting [7] is 113 % of control, the T/C under setting [8] is 154 % of control and the T/C under setting [10] was 122 % of control.

Consider `CNC(=S)N/N=C/C(C)=N/NC(=S)NC`, for which the T/C is, setting by setting: (dose: 1.6 mg/kg/injection, schedule: Q01DX009 (ip), vehicle: Klucel (hydroxypropylcellulose) (HPC)) 113 % of control; (dose: 3.12 mg/kg/injection, schedule: Q01DX009 (ip), vehicle: Klucel (hydroxypropylcellulose) (HPC)) 104 % of control; under setting [1], 104 % of control; under setting [7], 100 % of control; under setting [10], 100 % of control; (dose: 125.0 micrograms/kg/injection, schedule: Q01DX009 (ip), vehicle: saline) 109 % of control. Besides, the T/C is, setting by setting: (dose: 250.0 micrograms/kg/injection, schedule: Q01DX009 (ip), vehicle: saline) 109 % of control; (dose: 500.0 micrograms/kg/injection, schedule: Q01DX009 (ip), vehicle: saline) 109 % of control; (dose: 1000.0 micrograms/kg/injection, schedule: Q01DX009 (ip), vehicle: saline) 109 % of control.

Regarding `COc1ccc(C2(C(=O)O)CC2)cc1`, the T/C by setting is: under setting [4], 111 % of control; (dose: 100.0 mg/kg/injection, schedule: Q04DX003 (ip), vehicle: saline with Tween-80) 109 % of control; under setting [5], 100 % of control; (dose: 200.0 mg/kg/injection, schedule: Q04DX003 (ip), vehicle: saline with Tween-80) 109 % of control; under setting [6], 96 % of control; (dose: 400.0 mg/kg/injection, schedule: Q04DX003 (ip), vehicle: saline with Tween-80) 113 % of control.

In the case of `CS(=O)(=O)OCCN(CCOS(C)(=O)=O)c1ccc(N=O)cc1`, the T/C (dose: 0.5 mg/kg/injection, schedule: Q01DX010 (ip), vehicle: saline) was 122 % of control; the T/C (dose: 1.0 mg/kg/injection, schedule: Q01DX010 (ip), vehicle: saline) is 104 % of control; the T/C (dose: 2.0 mg/kg/injection, schedule: Q01DX010 (ip), vehicle: saline) is 86 % of control and 113 % of control; the T/C (dose: 62.5 micrograms/kg/injection, schedule: Q01DX010 (ip), vehicle: saline) was 158 % of control; the T/C (dose: 125.0 micrograms/kg/injection, schedule: Q01DX010 (ip), vehicle: saline) is 166 % of control.

Regarding `CCOC(=O)c1cc(N)c(C(=O)OCC)cc1N`, the T/C is 99 % of control and 114 % of control under setting [3]; 98 % of control and 108 % of control under setting [4]; 106 % of control under setting [5]; 99 % of control under setting [6].

Take `CCCCCCCCC(=O)NCc1ccc(OC)cc1`: the T/C by setting is: (dose: 100.0 mg/kg/injection, schedule: Q01DX001 (ip), vehicle: other) 91 % of control; (dose: 200.0 mg/kg/injection, schedule: Q01DX001 (ip), vehicle: other) 100 % of control; (dose: 400.0 mg/kg/injection, schedule: Q01DX001 (ip), vehicle: other) 91 % of control.

Take `O=C(COc1cc(Cl)c(Cl)cc1Cl)OCCN(CCOC(=O)COc1cc(Cl)c(Cl)cc1Cl)C(=O)COc1ccc(Cl)cc1`: the T/C (dose: 100.0 mg/kg/injection, schedule: Q04DX003 (ip), vehicle: other) was 100 % of control; the T/C (dose: 200.0 mg/kg/injection, schedule: Q04DX003 (ip), vehicle: other) is 86 % of control; the T/C (dose: 400.0 mg/kg/injection, schedule: Q04DX003 (ip), vehicle: other) is 100 % of control.

In the case of `CCOC(=O)CCSC(C)(C)C(=O)OCC`, the T/C reads like this: under setting [8], 100 % of control; under setting [9], 104 % of control; under setting [10], 105 % of control; (dose: 200.0 mg/kg/injection, schedule: Q04DX003 (ip), vehicle: Klucel (hydroxypropylcellulose) (HPC)) 104 % of control; (dose: 400.0 mg/kg/injection, schedule: Q01DX009 (ip), vehicle: Klucel (hydroxypropylcellulose) (HPC)) 105 % of control; (dose: 400.0 mg/kg/injection, schedule: Q04DX003 (ip), vehicle: Klucel (hydroxypropylcellulose) (HPC)) 100 % of control.

For `O=C1c2ccccc2C(=O)N1C/C(=N/O)c1ccc(C(F)(F)F)cc1`, the T/C reads like this: (dose: 50.0 mg/kg/injection, schedule: Q01DX001 (ip), vehicle: Klucel (hydroxypropylcellulose) (HPC)) 96 % of control; (dose: 100.0 mg/kg/injection, schedule: Q01DX001 (ip), vehicle: Klucel (hydroxypropylcellulose) (HPC)) 96 % of control; (dose: 200.0 mg/kg/injection, schedule: Q01DX001 (ip), vehicle: Klucel (hydroxypropylcellulose) (HPC)) 96 % of control.

On to `COc1ccc2c(c1OC)CN(C)CCc1cc3c(cc1C(=O)C2)OCO3`, for which the T/C by setting is: (dose: 18.75 mg/kg/injection, schedule: Q01DX009 (ip), vehicle: saline with Tween-80) 95 % of control; (dose: 37.5 mg/kg/injection, schedule: Q01DX009 (ip), vehicle: saline with Tween-80) 95 % of control.

With `CCOC(=O)NCCCNC(=O)OCC`, the T/C was 115 % of control (dose: 100.0 mg/kg/injection, schedule: Q04DX003 (ip), vehicle: saline); 115 % of control (dose: 200.0 mg/kg/injection, schedule: Q04DX003 (ip), vehicle: saline); 105 % of control (dose: 400.0 mg/kg/injection, schedule: Q04DX003 (ip), vehicle: saline).

Take `NC(=O)SCC(N)C(=O)O` (centres undefined): the T/C is 115 % of control (dose: 50.0 mg/kg/injection, schedule: Q01DX009 (ip), vehicle: saline); 115 % of control (dose: 100.0 mg/kg/injection, schedule: Q01DX009 (ip), vehicle: saline); 118 % of control (dose: 200.0 mg/kg/injection, schedule: Q01DX009 (ip), vehicle: saline).
